# Test results: publication PMC4871228 (European journal of medicinal chemistry, 2015)
# Read-outs that look alike come from different tables or passages of the source.
# Key:
# KAT8 [1] = biological target: T1, KAT8 (Homo sapiens, UniProt Q9H7Z6); assay: KAT8 inhibition, fluorescence-based assay detecting CoA with CPM; assay type: biochemical; details: within the investigated range of concentrations (up to 400 µM)
# T1 sequence (Q9H7Z6 1-458): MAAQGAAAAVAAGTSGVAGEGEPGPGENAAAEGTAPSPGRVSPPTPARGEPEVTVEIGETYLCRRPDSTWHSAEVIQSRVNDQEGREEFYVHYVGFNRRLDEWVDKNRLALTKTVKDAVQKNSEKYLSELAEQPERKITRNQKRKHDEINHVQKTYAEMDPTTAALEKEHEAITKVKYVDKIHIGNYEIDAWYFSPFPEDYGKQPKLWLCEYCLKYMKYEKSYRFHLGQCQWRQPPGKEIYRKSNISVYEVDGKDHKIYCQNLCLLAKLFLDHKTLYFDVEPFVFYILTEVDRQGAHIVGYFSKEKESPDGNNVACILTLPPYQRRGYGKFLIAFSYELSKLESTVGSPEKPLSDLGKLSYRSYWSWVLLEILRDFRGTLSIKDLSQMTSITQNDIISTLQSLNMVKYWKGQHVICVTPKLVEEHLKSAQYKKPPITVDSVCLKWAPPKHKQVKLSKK
# KAT8 [2] = biological target: T1, KAT8; assay: Steady-state enzyme kinetics of KAT8 substrates; assay type: biochemical; details: for Km: read-out: Km of Ac-CoA
# KAT8 [3] = biological target: T1, KAT8; assay: Isothermal titration calorimetry, titration to KAT8; assay type: binding; details: ITC, Ac-CoA vs KAT8
smiles,measurement,setting,value
CCCCCCCSCC(=O)c1ccccc1O [Compound 13],KAT8 inhibitory potency (in words),KAT8 [1],completely removed activity
"CC(=O)SCCNC(=O)CCNC(=O)[C@H](O)C(C)(C)COP(=O)(O)OP(=O)(O)OC[C@H]1O[C@@H](n2cnc3c(N)ncnc32)[C@H](O)[C@@H]1OP(=O)(O)O [Ac-CoA, acetyl coenzyme A]",Vmax of Ac-CoA,KAT8 [2]; 15 µM histone H4 peptide,3.4 ± 0.2 pmol/min
same,kcat of Ac-CoA,KAT8 [2]; 15 µM histone H4 peptide,0.0033 ± 0.00033 s⁻¹
same,Vmax of Ac-CoA,KAT8 [2]; 30 µM histone H4 peptide,4.5 ± 0.3 pmol/min
same,kcat of Ac-CoA,KAT8 [2]; 30 µM histone H4 peptide,0.005 ± 0.00033 s⁻¹
same,Vmax of Ac-CoA,KAT8 [2]; 60 µM histone H4 peptide,9.9 ± 0.3 pmol/min
same,kcat of Ac-CoA,KAT8 [2]; 60 µM histone H4 peptide,0.012 ± 0.00067 s⁻¹
same,Vmax of Ac-CoA,KAT8 [2]; 90 µM histone H4 peptide,14.7 ± 0.6 pmol/min
same,kcat of Ac-CoA,KAT8 [2]; 90 µM histone H4 peptide,0.0183 ± 0.001 s⁻¹
same,Km,KAT8 [2]; 15 µM histone H4 peptide,1.1 ± 0.3 µM
same,Km,KAT8 [2]; 30 µM histone H4 peptide,1.2 ± 0.3 µM
same,Km,KAT8 [2]; 60 µM histone H4 peptide,2.1 ± 0.3 µM
same,Km,KAT8 [2]; 90 µM histone H4 peptide,2.8 ± 0.5 µM
same,-TΔS,KAT8 [3],−17228 cal/mol/degK
same,Kd,KAT8 [3],8.7 ± 1.2 µM
same,N (stoichiometry),KAT8 [3],0.95
same,ΔG,KAT8 [3],−6758
same,ΔH,KAT8 [3],10.47 ± 0.47 kcal/mol
O=C(O)c1c(O)cccc1CCCCCCCCCCCO [Compound 8b],KAT8 inhibitory potency (in words),KAT8 [1],loss of potency
CCCCCc1ccc(O)c(C(=O)O)c1 [Compound 11c],KAT8 inhibitory potency (in words),KAT8 [1],completely lose their affinity
CCCCCc1cccc(O)c1C(=O)O [Compound 14],KAT8 inhibitory potency (in words),KAT8 [1],completely lose their affinity
